According to the supplement of paper PMC11061612:

Legend:
Assay in all cases: combination Emax (second highest fraction inhibited in the dose matrix, 72 h); higher = more inhibition; extreme values may be limits of the assay
[1] = system: CHSA8926 (Chondrosarcoma)
Procedure, shortened: (§1)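 Bliss excess equals the observed combination effect minus the expected value EA + EB − EA·EB, where EA and EB are the effects of each agent alone. Combination Emax is the second-highest inhibition within the matrix. Inhibition was scaled from CellTiter-Glo 2.0 luminescence, with 0 set by vehicle wells and 1 by blank wells, after 72 hours of two-drug dosing of cells plated in 1536-well plates.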

[2] = system: COR-L279 (Small Cell Lung Carcinoma)
Procedure, shortened: as §1

[3] = system: CW-2 (Colorectal Carcinoma)
Procedure, shortened: as §1

[4] = system: DMS-114 (Small Cell Lung Carcinoma)
Procedure, shortened: as §1

[5] = system: IM-95 (Gastric Carcinoma)
Procedure, shortened: as §1

[6] = system: KU812 (Chronic Myelogenous Leukemia)
Procedure, shortened: as §1

[7] = system: KY821 (Acute Myeloid Leukemia)
Procedure, shortened: as §1

[8] = system: KYSE-270 (Esophageal Squamous Cell Carcinoma)
Procedure, shortened: as §1

M059J (Glioblastoma) = system: M059J (Glioblastoma)
Procedure, shortened: as §1

[9] = system: MN-60 (B-Lymphoblastic Leukemia)
Procedure, shortened: as §1

[10] = system: MOG-G-CCM (Low Grade Glioma)
Procedure, shortened: as §1

[11] = system: NCI-H3122 (Lung Adenocarcinoma)
Procedure, shortened: as §1

[12] = system: NCI-H520 (Squamous Cell Lung Carcinoma)
Procedure, shortened: as §1

[13] = system: NCI-H661 (Non-Small Cell Lung Carcinoma)
Procedure, shortened: as §1

[14] = system: NCI-H929 (Plasma Cell Myeloma)
Procedure, shortened: as §1

SJSA-1 (Osteosarcoma) = system: SJSA-1 (Osteosarcoma)
Procedure, shortened: as §1

[15] = system: SK-GT-4 (Esophageal Adenocarcinoma)
Procedure, shortened: as §1

[16] = system: ST486 (Burkitt's Lymphoma)
Procedure, shortened: as §1

[17] = system: SU-DHL-5 (B-Cell Non-Hodgkin's Lymphoma)
Procedure, shortened: as §1

[18] = system: VMRC-RCZ (Kidney Carcinoma)
Procedure, shortened: as §1

SMILES	combination Emax [1]	combination Emax [2]	combination Emax [3]	combination Emax [4]	combination Emax [5]	combination Emax [6]	combination Emax [7]	combination Emax [8]	combination Emax (M059J (Glioblastoma))	combination Emax [9]	combination Emax [10]	combination Emax [11]	combination Emax [12]	combination Emax [13]	combination Emax [14]	combination Emax (SJSA-1 (Osteosarcoma))	combination Emax [15]	combination Emax [16]	combination Emax [17]	combination Emax [18]
CC(=O)c1c(C)c2cnc(Nc3ccc(N4CCNCC4)cn3)nc2n(C2CCCC2)c1=O [Palbociclib] + Cc1c2c(nn1C)CSCc1cc(n(C)n1)CSc1cc(c3ccccc3c1)OCCCc1c(C(=O)O)n(C)c3c-2c(Cl)ccc13 [AZD5991] (first compound max 10 µM, 7x7, partner max 1 µM)	0.289	0.627	0.451	0.49	0.33	0.834	1	0.568	0.191	0.443	0.169	0.605	0.638	0.631	1	0.351	0.305	0.832	1	0.194
CC1(C)CCC(CN2CCN(c3ccc(C(=O)NS(=O)(=O)c4ccc(NCC5CCOCC5)c([N+](=O)[O-])c4)c(Oc4cnc5[nH]ccc5c4)c3)CC2)=C(c2ccc(Cl)cc2)C1 [Venetoclax] + CCN(CCO)CCCOc1ccc2c(Nc3cc(CC(=O)Nc4cccc(F)c4)[nH]n3)ncnc2c1 [AZD2811] (first compound max 1 µM, 7x7, partner max 1 µM)	0.34	0.833	0.177	0.207	0.412	0.65	0.978	0.716	0.375	0.297	0.485	0.33	0.258	0.143	0.391	0.222	0.409	0.925	0.778	0.178
CN(CCO)CC[C@H](CSc1ccccc1)Nc1ccc(S(=O)(=O)NC(=O)c2ccc(N3CCC([C@@H](O)c4ccccc4-c4ccc(Cl)cc4)CC3)cc2)cc1S(=O)(=O)C(F)(F)F [AZD4320] + C[C@@H](Nc1cc(F)cc(F)c1)c1cc(C(=O)N(C)C)cc2c(=O)cc(N3CCOCC3)oc12 [AZD8186] (first compound max 1 µM, 7x7, partner max 3 µM)	0.863	1	0.149	0.362	0.855	0.705	1	0.357	0.306	0.226	0.728	0.365	0.688	0.308	0.792	0.315	0.415	0.887	0.99	0.397
COc1nnc2ccc(N3CCC(c4ccc(OCCN5CCN(C)C(=O)[C@H]5C)cc4)CC3)nn12 [AZD5153] + C=CCn1c(=O)c2cnc(Nc3ccc(N4CCN(C)CC4)cc3)nc2n1-c1cccc(C(C)(C)O)n1 [AZD1775] (first compound max 1 µM, partner max 1 µM)	0.735	0.899	0.605	0.629	0.5	0.931	1	0.656	0.668	0.748	0.615	0.707	0.811	0.731	0.908	0.589	0.6	0.985	1	0.489
CC(=O)c1c(C)c2cnc(Nc3ccc(N4CCNCC4)cn3)nc2n(C2CCCC2)c1=O [Palbociclib] + CC1(C)CCC(CN2CCN(c3ccc(C(=O)NS(=O)(=O)c4ccc(NCC5CCOCC5)c([N+](=O)[O-])c4)c(Oc4cnc5[nH]ccc5c4)c3)CC2)=C(c2ccc(Cl)cc2)C1 [Venetoclax] (first compound max 10 µM, 7x7, partner max 1 µM)	0.188	0.375	0.336	0.209	0.105	0.521	1	0.125	0.0491	0.422	0.136	0.572	0.628	0.0364	0.356	0.276	0.216	0.581	1	0.105
NC1(C(=O)N[C@@H](CCO)c2ccc(Cl)cc2)CCN(c2ncnc3[nH]ccc23)CC1 [Capivasertib] + CC(=O)c1c(C)c2cnc(Nc3ccc(N4CCNCC4)cn3)nc2n(C2CCCC2)c1=O [Palbociclib] (first compound max 10 µM, 7x7, partner max 10 µM)	0.48	0.688	0.445	0.284	0.423	0.552	0.757	0.27	0.338	0.583	0.501	0.701	0.717	0.368	1	0.51	0.588	0.549	1	0.401
CCc1c2c(nc3ccc(O)cc13)-c1cc3c(c(=O)n1C2)COC(=O)[C@]3(O)CC [SN-38] + O=C(c1cc(Cc2n[nH]c(=O)c3ccccc23)ccc1F)N1CCN(C(=O)C2CC2)CC1 [Olaparib] (first compound max 0.3 µM, 7x7, partner max 10 µM)	0.452	1	0.604	0.491	0.465	0.756	0.998	0.949	0.987	0.858	0.49	0.932	0.834	0.548	0.95	0.804	0.4	0.702	1	0.281
Cc1c2c(nn1C)CSCc1cc(n(C)n1)CSc1cc(c3ccccc3c1)OCCCc1c(C(=O)O)n(C)c3c-2c(Cl)ccc13 [AZD5991] + Cn1cnc2c(F)c(Nc3ccc(Br)cc3Cl)c(C(=O)NOCCO)cc21 [Selumetinib] (first compound max 1 µM, 7x7, partner max 3 µM)	0.303	0.18	0.314	0.43	0.957	0.949	1	0.76	0.264	0.323	0.195	0.881	0.176	0.462	1	0.457	0.574	0.993	1	0.214
Cc1cc2ncnn2cc1Nc1ncc2c(n1)n(C1CCOCC1)c(=O)n2C [AZD7648] + CN(C)CCCOc1ccc(-c2ccc3ncc4c(c3c2)n(C2CCOCC2)c(=O)n4C)cn1 [AZD0156] (first compound max 10 µM, 7x7, partner max 1 µM)	0.446	0.4	0.207	0.293	0.303	0.467	0.417	0.143	0.321	0.201	0.256	0.423	0.614	0.237	0.855	0.456	0.315	0.274	0.66	0.256
C=CCn1c(=O)c2cnc(Nc3ccc(N4CCN(C)CC4)cc3)nc2n1-c1cccc(C(C)(C)O)n1 [AZD1775] + O=C(c1cc(Cc2n[nH]c(=O)c3ccccc23)ccc1F)N1CCN(C(=O)C2CC2)CC1 [Olaparib] (first compound max 1 µM, partner max 10 µM)	0.455	0.858	0.392	0.363	0.447	0.816	1	0.7	0.618	0.366	0.456	0.736	0.833	0.512	0.473	0.253	0.363	0.979	1	0.339
CCN(CCO)CCCOc1ccc2c(Nc3cc(CC(=O)Nc4cccc(F)c4)[nH]n3)ncnc2c1 [AZD2811] + C=CCn1c(=O)c2cnc(Nc3ccc(N4CCN(C)CC4)cc3)nc2n1-c1cccc(C(C)(C)O)n1 [AZD1775] (first compound max 1 µM, partner max 1 µM)	0.455	0.662	0.274	0.243	0.475	0.725	1	0.63	0.553	0.291	0.377	0.627	0.674	0.543	0.323	0.289	0.363	0.983	1	0.217
COc1cccc(OCCCN)c1-c1cc(Nc2cnc(C#N)cn2)n[nH]1 [Prexasertib] + C[C@@H]1COCCN1C2=NC(=NC(=C2)C3(CC3)[S@](=N)(=O)C)C4=C5C=CNC5=NC=C4 [AZD6738] (first compound max 1 µM, 7x7, partner max 10 µM)	0.361	0.835	0.614	0.514	0.267	0.756	1	0.999	0.686	0.562	0.644	0.794	0.775	0.744	0.741	0.575	0.713	0.98	1	0.398
Cn1cnc2c(F)c(Nc3ccc(Br)cc3Cl)c(C(=O)NOCCO)cc21 [Selumetinib] + CC(C)n1c(=O)n(C)c2cnc3cc(F)c(-c4ccc(OCCCN5CCCCC5)nc4)cc3c21 [AZD1390] (first compound max 10 µM, 7x7, partner max 0.3 µM)	0.185	0.194	0.252	0.199	0.222	0.949	0.66	0.25	0.107	0.052	0.125	0.552	0.147	0.0857	0.611	0.307	0.516	0.455	0.299	0.101
